From publication PMC3438379 (Journal of enzyme inhibition and medicinal chemistry, 2011)
Read-outs that look alike come from different tables or passages of the source.

What was measured:
[1] = Relative aqueous solubility by stepwise water dilution of DMSO solution; type: physicochemical; conditions: 50 μL DMSO solution of 5 mg mL^−1, water added in 50 μL steps
[2] = test system: HIV-1-infected MT-4 cells; conditions: ref [9]; cited from earlier work
[3] = cited from earlier work
HIV-1 protease = HIV-1 protease (Human immunodeficiency virus type 1 group M subtype B, UniProt P04585); conditions: read-out: IC50 (inhibition of HIV-1 protease), cited from earlier work

Row | SMILES | Water solubility (dilution steps required to achieve clear solution) [1] | activity against HIV-induced cytopathic effects [2] | solubility in DMSO ([3]; 25°C, ref [23]) | solubility in ethanol ([3]; 25°C, ref [23]) | Water solubility ([3]; at 25°C, ref [22]) | solubility in water ([3]; room temperature, ref [22]) | IC50 (HIV-1 protease; ref [18]) | IC50 (HIV-1 protease; ref [19])
1 | C=C(C)[C@@H]1CC[C@]2(C(=O)[O-])CC[C@]3(C)[C@H](CC[C@@H]4[C@@]5(C)CC[C@H](O)C(C)(C)[C@@H]5CC[C@]43C)[C@@H]12.C[N+](C)(C)CCO [compound 8, cholinium betulinate] | > 100x | – | – | – | – | – | – | –
2 | C=C(C)[C@@H]1CC[C@]2(C(=O)O)CC[C@]3(C)[C@H](CC[C@@H]4[C@@]5(C)CC[C@H](OC(=O)CC(C)(C)C(=O)O)C(C)(C)[C@@H]5CC[C@]43C)[C@@H]12 [3-O-(3′,3′-dimethylsuccinyl) betulinic acid] | – | high activity | – | – | – | – | – | –
3 | C=C(C)[C@@H]1CC[C@]2(C(=O)O)CC[C@]3(C)[C@H](CC[C@@H]4[C@@]5(C)CC[C@H](O)C(C)(C)[C@@H]5CC[C@]43C)[C@@H]12 [compound 1, 3β-hydroxy-lup-20(29)-en-28-oic acid] | < 2 x | – | 5 % (w/v) | 1 % (w/v) | 0.02 µg/mL | about 0.02 μg mL^−1 | 9 µM | 2.5 µM
